Data set [1] deals with Mycobacterium tuberculosis H37 Rv. Nature of the data set: Therapeutic effect on mice experimentally infected with tuberculosis (FIG. 1, groups of 20 mice). To be noted: oral, 200 μg/mouse, once a day, six days a week.
Excerpt: In FIG. 1, the point, a, means the time that mice were infected, and the point, b, means the time that the treatment started.
The nature of data set [2]: Plasma concentration after oral administration to mice, bioassay with Micrococcus luteus IFO 12708. To be noted: mouse, 20 mg/kg. Type of data set: in vivo, ddY male mice. How it is done:
The derivatives No. 4 and No. 11 shown in Table 1 were orally administered to ddY male mice (7 weeks), respectively, in a dose of 20 mg/kg. The concentration of the test compound in the plasma was measured by a bioassay method employing Micrococcus luteus IFO 12708 as an assay bacterium according to a usual manner. The results are as follows: As for the derivative No. 4, the concentrations in the plasma after 1 hour, 3 hours, 5 hours and 8 hours from the administration were 17.0 μg/ml, 13.3 μg/ml, 14.5 μg/ml, 4.2 μg/ml, respectively. As for the derivative No. 11, the concentrations in the plasma after 1 hour, 3 hours, 5 hours and 8 hours from the administration were 17.3 μg/ml, 16.2 μg/ml, 13.8 μg/ml and 10.1 μg/ml, respectively.

Data set [3] relates to Mycobacterium tuberculosis H37 Rv. Nature of the data set: Antibacterial activity against a tubercle bacillus, two-fold dilution in Kirchner liquid medium. To be noted: Table 3; Kirchner medium with 10% bovine serum, 37° C., 4 weeks.
The subject of data set [4] is Micrococcus luteus IFO 12708. The data set can be described thus: Antibacterial activity, standard method of Japan Society of Chemotherapy (Table 2). The class given is cell-based. To be noted: IFO12708, read-out: Minimal inhibitory concentration. The source says: (§1) Derivative No. in Table 2 corresponds to derivative No. in Table 1.
Data set [5] relates to Klebsiella pneumoniae IFO 3512. The data set is described as above. Type of data set: cell-based. To be noted: IFO3512, read-out: Minimal inhibitory concentration.
Excerpt: as §1

In data set [6] the test system is Staphylococcus aureus IFO 12732. The data set is described as above. Type of data set: cell-based. To be noted: IFO12732, read-out: Minimal inhibitory concentration.
Excerpt: as §1

In data set [7] the test system is Bacillus subtilis IFO 3134. The description is as above. Type of data set: cell-based. To be noted: IFO3134, read-out: Minimal inhibitory concentration.
Excerpt: as §1

For data set [8], the system named is Mycobacterium smegmatis ATCC 607. The description is as above. The class given is cell-based. To be noted: Mycolicibacterium smegmatis, ATCC607, read-out: Minimal inhibitory concentration.
Excerpt: as §1

In data set [9] the test system is Escherichia coli IFO 12734. The data set is described as above. The class given is cell-based. To be noted: IFO12734, read-out: Minimal inhibitory concentration.
Excerpt: as §1

Data set [10] relates to Mycobacterium tuberculosis H37 Rv. The data set can be described thus: Repeated treatment test of mice infected with tuberculosis, survival on fortieth day (groups of 10 mice). To be noted: oral, 200 μg/mouse.

≈ marks a conversion by molar mass, not a printed value. A value given as a limit tells only on which side of the number the result lay.

Consider `COC1C=COC2(C)Oc3c(C)c(O)c4c(=O)c(c5oc6cc(N7CCCCC7)ccc6nc-5c4c3C2=O)NC(=O)C(C)=CC=CC(C)C(O)C(C)C(O)C(C)C(OC(C)=O)C1C` (centres unmarked) [Derivative B], for which the “therapeutic effect as compared with rifampicin” value in data set [1] is on record as “inferior to rifampicin”.

Regarding `CCc1c(N2CCCC2)ccc2nc3c4c5c6c(C)c(O)c4c(=O)c(c-3oc12)NC(=O)C(C)=CC=CC(C)C(O)C(C)C(O)C(C)C(OC(C)=O)C(C)C(OC)C=COC(C)(O6)C5=O` (centres unmarked) [Derivative C], the “therapeutic effect as compared with rifampicin” value in [1] is given as “inferior to rifampicin”.

As for `CCOc1c(N2CCCC2)ccc2nc3c4c5c6c(C)c(O)c4c(=O)c(c-3oc12)NC(=O)C(C)=CC=CC(C)C(O)C(C)C(O)C(C)C(OC(C)=O)C(C)C(OC)C=COC(C)(O6)C5=O` (centres unmarked) [Derivative No. 4], the concentration at 1 h in data set [2] (1 hour) was 17000 ng/mL. Further, the concentration at 3 h in data set [2] (3 hours) was 13300 ng/mL. For the same molecule, the concentration at 5 h in data set [2] (5 hours) worked out at 14500 ng/mL. Moreover, the concentration at 8 h in data set [2] (8 hours) came out at 4200 ng/mL. The same molecule came in with a Minimal inhibitory concentration in data set [3] of 0.017 µg/mL (≈ 0.0189 µM). In addition, the MIC in data set [4] is 0.04 µg/mL (≈ 0.0445 µM); in data set [5], greater than 10 µg/mL; in data set [6], no more than 0.02 µg/mL; in [7], 0.04 µg/mL (≈ 0.0445 µM); in data set [8], 0.63 µg/mL (≈ 0.702 µM); in data set [9], greater than 10 µg/mL. Besides, the Survival rate in data set [10] was determined as 100%. The dead mice entry in [10] is given as “there was not observed any dead mouse”.

`CCOc1c(N2CCN(CC(C)C)CC2)ccc2nc3c4c5c6c(C)c(O)c4c(=O)c(c-3oc12)NC(=O)C(C)=CC=CC(C)C(O)C(C)C(O)C(C)C(OC(C)=O)C(C)C(OC)C=COC(C)(O6)C5=O` (centres unmarked) [Derivative No. 8] yielded a Minimal inhibitory concentration in data set [3] of 0.07 µg/mL (≈ 0.0722 µM). Further, the MIC is no more than 0.02 µg/mL in data set [4]; greater than 10 µg/mL in data set [5]; no more than 0.02 µg/mL in [6]; no more than 0.02 µg/mL in [7]; 0.63 µg/mL (≈ 0.65 µM) in [8]; greater than 10 µg/mL in data set [9]. Also, the “therapeutic effect as compared with rifampicin and derivative A” value in [1] is “excellent therapeutic effect as compared with rifampicin”.

The values above are taken from patent US4965261A, “Substituted benzoxazinorifamycin derivative and antibacterial agent containing the same” (Kanegafuchi Kagaku Kogyo Kabushiki Kaisha, priority 1988, dated 1990).
